Test results taken from patent US20120220580A1, “PREPARATION OF CAROTENOID DERIVATIVES AND THEIR APPLICATIONS” (BEIJING GINGKO GROUP BIOLOGICAL TECHNOLOGY CO., LTD., priority 2009, published 2012).
Counter-ions that a name gives are not always drawn.

How the values were obtained:
Assay type in all cases: in vivo, rat
nutritional obesity rats [1] = test: Body weight of nutritional obesity rats on high-fat feed, intragastric drug for 30 d (Example 17); conditions: x ± s; for Body weight(g) (After-experiment) / Body weight(g) increased: Table 1, high-fat feed; for Body weight(g) (After-experiment): after 30 d intragastric administration; for Body weight(g) increased: increase over 30 d of administration; for Body weight(g) (After-experiment): test concentration or dose not given here; for Body weight(g) increased: test concentration or dose not given here
Method: (§1) Fucoxanthin group and test animal groups were administrated with same doses of the drugs. The basal feed control group continued to be fed with basal feed, other groups with high-fat feed. The basal feed- and model control groups were intragastric administrated with distilled water, the other, drug-administrated groups with respective doses of drug, the administration were carried out uninterruptedly for 30 d. Each group of the animals were bred in different hutches, the room temperature was controlled within (22±2)° C., using natural illumination, the animals took food and drank freely. The body weights of the animals were measured one time each week, feed-intakes of the rats were also observed and recorded. After 30 days the rats were weighed. Statistical analysis: Variance analysis of the data collected in this experiment was implemented by SAS software package, Dunnett's t-test was used for inter-group comparative analysis, p<0.05 was used as the criterion of statistical significance.

nutritional obesity rats [2] = test: Weight of abdomen fat of nutritional obesity rats (Example 20); conditions: after 30 d administration, x ± s; for Body weight(g) (After-experiment): Table 4
Method: as §1, with “significance. Experimental procedures were the same as in Example 17. […] Statistical analysis was the same as in Example 16.” for “significance.”

nutritional obesity rats [3] = test: Weight of fat pads around testicles of nutritional obesity rats (Example 18); conditions: after 30 d administration, x ± s; for Body weight(g) (After-experiment): Table 2
Method: as §1, with “significance. Experimental procedures were the same as in Example 17. […] Statistical analysis was the same as in Example 16.” for “significance.”

[4] = test system: nutritional obesity model rats; test: Weight of fat pads around kidneys of nutritional obesity model rats (Example 19); conditions: after 30 d administration, x ± s; for Body weight(g) (After-experiment): Table 3
Method: as §1, with “significance. Experimental procedures were the same as in Example 17. […] Statistical analysis was the same as in Example 16.” for “significance.”

Compound	Body weight(g) (After-experiment) (nutritional obesity rats [1])	Body weight(g) increased (nutritional obesity rats [1])	Body weight(g) (After-experiment) (nutritional obesity rats [2])	Weight abdomen fat/bw × 100 (nutritional obesity rats [2])	Weight. abdomenfat (g) (nutritional obesity rats [2])	other results
CC(=O)OC1CC(C)(C)C(=C=C/C(C)=C/C=C/C(C)=C/C=C/C=C(C)/C=C/C=C(\C)C(=O)CC23OC2(C)CC(OC(=O)CC(O)(CC(=O)O)C(=O)O)CC3(C)C)[C@](C)(O)C1 (stereo partly drawn) [compound 1, fucoxanthin citrate]	515.00 ± 29.21ΔΔ g	28.50 ± 1.15ΔΔ g	–	–	–	–
CC(=O)OC1CC(C)(C)C(=C=C/C(C)=C/C=C/C(C)=C/C=C/C=C(C)/C=C/C=C(\C)C(=O)CC23OC2(C)CC(OC(=O)CCC(=O)O)CC3(C)C)[C@@](C)(O)C1 (stereo partly drawn) [compound 2, fucoxanthin succinate]	–	–	516.03 ± 12.15 g	1.31 ± 0.12ΔΔ	6.76 ± 0.22ΔΔ g	Body weight(g) (After-experiment) (nutritional obesity rats [3]): 512.1 ± 21.00 g; Weight fat pads around testicles(g) (nutritional obesity rats [3]): 6.00 ± 0.11ΔΔ g; Weight fat pads around testicles/bw × 100 (nutritional obesity rats [3]): 1.18 ± 0.13ΔΔ
CC(=O)OC1CC(C)(C)C(=C=C/C(C)=C/C=C/C(C)=C/C=C/C=C(C)/C=C/C=C(\C)C(=O)CC23OC2(C)CC(OC(=O)CCC(=O)O)CC3(C)C)[C@@](C)(O)C1 (stereo partly drawn) [compound 3, fucoxanthin succinate sodium salt]	–	–	–	–	–	Body weight(g) (After-experiment) (nutritional obesity rats [3]; succinate sodium salt): 513.1 ± 19.13 g; Weight fat pads around testicles(g) (nutritional obesity rats [3]; succinate sodium salt): 7.00 ± 0.13ΔΔ g; Weight fat pads around testicles/bw × 100 (nutritional obesity rats [3]; succinate sodium salt): 1.20 ± 0.10ΔΔ
CC(=O)OC1CC(C)(C)C(=C=C/C=C/C=C/C(C)=C/C=C/C=C(C)/C=C/C=C(\C)C(=O)CC23OC2(C)CC(OC(=O)CCC(=O)OC[C@H](O)[C@H]2OC(=O)C(O)=C2O)CC3(C)C)[C@@](C)(O)C1 (stereo partly drawn) [compound 4, fucoxanthin succinate-4-vitamin C ester]	514.00 ± 30.22ΔΔ g	27.41 ± 1.21ΔΔ g	514.00 ± 30.22 g	0.80 ± 0.11ΔΔ	4.11 ± 0.14ΔΔ g	Body weight(g) (After-experiment) (nutritional obesity rats [3]): 514.00 ± 30.22 g; Weight fat pads around testicles(g) (nutritional obesity rats [3]): 4.00 ± 0.14ΔΔ g; Weight fat pads around testicles/bw × 100 (nutritional obesity rats [3]): 0.70 ± 0.21ΔΔ
CC(=O)OC1CC(C)(C)C(=C=C/C(C)=C/C=C/C(C)=C/C=C/C=C(C)/C=C/C=C(\C)C(=O)CC23OC2(C)CC(OC(=O)CC(O)(CC(=O)OC[C@H](O)[C@H]2OC(=O)C(O)=C2O)C(=O)O)CC3(C)C)[C@](C)(O)C1 (stereo partly drawn) [compound 7, fucoxanthincitrate5-vitamin C ester]	506.00 ± 19.07ΔΔ g	18.21 ± 1.12ΔΔ g	–	–	–	–
CC(=O)OC1CC(C)(C)C(=C=C/C(C)=C/C=C/C(C)=C/C=C/C=C(C)/C=C/C=C(\C)C(=O)CC23OC2(C)CC(OC(=O)/C=C(/CC(=O)O)C(=O)O)CC3(C)C)[C@](C)(O)C1 (stereo partly drawn) [compound 8, fucoxanthin aconitate]	–	–	–	–	–	Body weight(g) (After-experiment) [4]: 518.18 ± 15.21 g; Weight fat pads around kidneys(g) [4]: 4.40 ± 0.34ΔΔ g; Weight fat pads around kidneys/bw × 100 [4]: 0.85 ± 0.12ΔΔ
CC(=O)OC1CC(C)(C)C(=C=C/C(C)=C/C=C/C(C)=C/C=C/C=C(C)/C=C/C=C(\C)C(=O)CC23OC2(C)CC(OC(=O)CCCN(C)C)CC3(C)C)[C@](C)(O)C1 (stereo partly drawn) [compound 9, fucoxanthin di-methylaminobutyrate]	–	–	–	–	–	Body weight(g) (After-experiment) [4]: 514.13 ± 13.00 g; Weight fat pads around kidneys(g) [4]: 5.00 ± 0.23ΔΔ g; Weight fat pads around kidneys/bw × 100 [4]: 0.98 ± 0.11ΔΔ
CC(=O)OC1CC(C)(C)C(=C=C/C(C)=C/C=C/C(C)=C/C=C/C=C(C)/C=C/C=C(\C)C(=O)CC23OC2(C)CC(OC(=O)CNC(=O)C(CS)NC(=O)CCC(N)C(=O)O)CC3(C)C)[C@](C)(O)C1 (stereo partly drawn) [compound 10, fucoxanthin glutathione ester]	–	–	517.00 ± 11.23 g	1.50 ± 0.14ΔΔ	7.75 ± 0.20ΔΔ g	Body weight(g) (After-experiment) [4]: 522.08 ± 18.11 g; Weight fat pads around kidneys(g) [4]: 4.00 ± 0.40ΔΔ g; Weight fat pads around kidneys/bw × 100 [4]: 0.75 ± 0.11ΔΔ
CC(=O)OC1CC(C)(C)C(=C=C/C(C)=C/C=C/C(C)=C/C=C/C=C(C)/C=C/C=C(\C)C(=O)CC23OC2(C)CC(OC(=O)[C@@H](O)[C@H](O)C(=O)O)CC3(C)C)[C@](C)(O)C1 (stereo partly drawn) [compound 11, fucoxanthin tartrate]	515.00 ± 18.90ΔΔ g	29.25 ± 1.23ΔΔ g	515.00 ± 18.90 g	1.40 ± 0.13ΔΔ	7.21 ± 0.23ΔΔ g	–
C\C(C=C=C1C(C)(C)CC(OC(=O)N2CCOCC2)C[C@@]1(C)O)=C/C=C/C(C)=C/C=C/C=C(C)/C=C/C=C(\C)C(=O)CC12OC1(C)CC(OC(=O)N1CCOCC1)CC2(C)C (stereo partly drawn) [compound 12, fucoxanthol bi-morpholino carbamate]	500.01 ± 20.10ΔΔ g	12.12 ± 1.25ΔΔ g	–	–	–	–
CC(=O)OC1CC(C)(C)C(=C=C/C(C)=C/C=C/C(C)=C/C=C/C=C(C)/C=C/C=C(\C)C(=O)CC23OC2(C)CC(OC(=O)CCC(=O)Oc2ccc(/C=C/c4cc(O)cc(O)c4)cc2)CC3(C)C)[C@@](C)(O)C1 (stereo partly drawn) [compound 14, fucoxanthin resveratrol succinate]	514.00 ± 22.22ΔΔ g	28.52 ± 1.21ΔΔ g	–	–	–	Body weight(g) (After-experiment) (nutritional obesity rats [3]): 514.00 ± 22.22 g; Weight fat pads around testicles(g) (nutritional obesity rats [3]): 5.00 ± 0.12ΔΔ g; Weight fat pads around testicles/bw × 100 (nutritional obesity rats [3]): 0.90 ± 0.12ΔΔ
CCCCC/C=C\C/C=C\CCCCCCCC(=O)OC1CC(C)(C)C2(CC(=O)/C(C)=C/C=C/C(C)=C/C=C/C=C(C)/C=C/C=C(\C)C=C=C3C(C)(C)CC(OC(C)=O)C[C@@]3(C)O)OC2(C)C1 (stereo partly drawn) [compound 15, fucoxanthin linoleate]	–	–	–	–	–	Body weight(g) (After-experiment) (nutritional obesity rats [3]): 520.01 ± 16.88 g; Weight fat pads around testicles(g) (nutritional obesity rats [3]): 6.34 ± 0.55ΔΔ g; Weight fat pads around testicles/bw × 100 (nutritional obesity rats [3]): 1.22 ± 0.11ΔΔ
fucoxanthin citrate sodium salt [compound 6]	507.00 ± 20.11ΔΔ g	20.32 ± 1.21ΔΔ g	–	–	–	Body weight(g) (before-experiment) (nutritional obesity rats [1]; SD male rats, after 1 month high-fat feed, before drug administration (baseline), 10 rats per group): 485.89 ± 18.99 g
fucoxanthin succinate 4-vitamin Cester sodium salt [compound 5]	–	–	504.01 ± 18.23 g	0.71 ± 0.10ΔΔ	3.58 ± 0.21ΔΔ g	Body weight(g) (After-experiment) [4]: 513.15 ± 11.00 g; Weight fat pads around kidneys(g) [4]: 7.00 ± 0.32ΔΔ g; Weight fat pads around kidneys/bw × 100 [4]: 1.12 ± 0.10ΔΔ
